The values that follow come from article PMC11859928, “Design, Synthesis, and Antiproliferative Activity of Novel Indole/1,2,4-Triazole Hybrids as Tubulin Polymerization Inhibitors” (Pharmaceuticals, 2025).

One test deals with A549/ATCC. Kind of test: NCI one-dose assay. It is filed as cell-based. The following applies: Homo sapiens, Non-small cell lung cancer, read-out: Cell growth inhibition %.
A further test relates to BT-549. In words: NCI one-dose assay. It is filed as cell-based. Conditions: Homo sapiens, BT-549, Breast cancer, read-out: Cell growth inhibition %.
Another test concerns EKVX. In words: NCI one-dose assay. Type of test: cell-based. The following applies: Homo sapiens, Non-small cell lung cancer, read-out: Cell growth inhibition %.
Another test concerns HCT-15. In words: NCI one-dose assay. It is filed as cell-based. The following applies: Homo sapiens, HCT-15, Colon cancer, read-out: Cell growth inhibition %.
A further test concerns HS 578 T. Kind of test: NCI one-dose assay. Type of test: cell-based. The following applies: Homo sapiens, Breast cancer, read-out: Cell growth inhibition %.
The subject of another test is HT29. Kind of test: NCI one-dose assay. It is filed as cell-based. The following applies: Homo sapiens, HT-29, HT29, Colon cancer, read-out: Cell growth inhibition %.
A further test has as its system IGROV1. Kind of test: NCI one-dose assay. It is filed as cell-based. Conditions: Homo sapiens, IGROV-1, IGROV1, Ovarian cancer, read-out: Cell growth inhibition %.
A further test has as its system LOX IMVI. In words: NCI one-dose assay. Conditions: Homo sapiens, Melanoma, read-out: Cell growth inhibition %. Type of test: cell-based.
For another test, the system named is M14. Kind of test: NCI one-dose assay. Type of test: cell-based. Conditions: Homo sapiens, M14, Melanoma, read-out: Cell growth inhibition %.
The subject of the next test is MDA-MB-231/ATCC. In words: NCI one-dose assay. It is filed as cell-based. Conditions: Homo sapiens, Breast cancer, read-out: Cell growth inhibition %.
For another test, the system named is MDA-MB-435. Kind of test: NCI one-dose assay. It is filed as cell-based. Conditions: Homo sapiens, MDA-MB-435, Melanoma, read-out: Cell growth inhibition %.
The next test has as its system MDA-MB-468. Kind of test: NCI one-dose assay. Type of test: cell-based. Conditions: Homo sapiens, MDA-MB-468, Breast cancer, read-out: Cell growth inhibition %.
For another test, the system named is MOLT-4. Kind of test: NCI one-dose assay. Type of test: cell-based. The following applies: Homo sapiens, MOLT-4, Leukemia, read-out: Cell growth inhibition %.
In the next test the test system is NCI-H460. In words: NCI one-dose assay. Type of test: cell-based. Conditions: Homo sapiens, NCI-H460, Non-small cell lung cancer, read-out: Cell growth inhibition %.
Another test relates to NCI/ADR-RES. In words: NCI one-dose assay. It is filed as cell-based. Conditions: Homo sapiens, Ovarian cancer, read-out: Cell growth inhibition %.
Another test concerns OVCAR-8. In words: NCI one-dose assay. Type of test: cell-based. Conditions: Homo sapiens, OVCAR-8, Ovarian cancer, read-out: Cell growth inhibition %.
Another test deals with SF-268. Kind of test: NCI one-dose assay. Type of test: cell-based. The following applies: Homo sapiens, SF-268, CNS cancer, read-out: Cell growth inhibition %.
Another test deals with SF-295. Kind of test: NCI one-dose assay. Type of test: cell-based. The following applies: Homo sapiens, SF-295, CNS cancer, read-out: Cell growth inhibition %.
The test system of a further test is SF-539. Kind of test: NCI one-dose assay. Type of test: cell-based. The following applies: Homo sapiens, SF-539, CNS cancer, read-out: Cell growth inhibition %.
The subject of the next test is SK-MEL-5. In words: NCI one-dose assay. Type of test: cell-based. The following applies: Homo sapiens, SK-MEL-5, Melanoma, read-out: Cell growth inhibition %.
The test system of a further test is SK-OV-3. In words: NCI one-dose assay. It is filed as cell-based. The following applies: Homo sapiens, SK-OV-3, Ovarian cancer, read-out: Cell growth inhibition %.
Another test concerns SR. In words: NCI one-dose assay. It is filed as cell-based. The following applies: Homo sapiens, Leukemia, read-out: Cell growth inhibition %.
The subject of a further test is UACC-62. In words: NCI one-dose assay. Type of test: cell-based. Conditions: Homo sapiens, UACC-62, Melanoma, read-out: Cell growth inhibition %.
The next test has as its system A498. Kind of test: NCI one-dose assay. It is filed as cell-based, human. The following applies: Homo sapiens, A498, A498, Renal cancer, read-out: Cell growth inhibition %.
In the next test the test system is RXF 393. Kind of test: NCI one-dose assay. Type of test: cell-based. Conditions: Homo sapiens, RXF 393, Renal cancer, read-out: Cell growth inhibition %.
In another test the test system is NCI 60 cell lines. In words: NCI one-dose assay, full panel. Conditions: Homo sapiens. It is filed as cell-based, human. The method, then: The National Cancer Institute (NCI), Bethesda, USA, selected the final compounds 6a–j and 7a–j for in vitro anticancer screening. An initial in vitro single-dose anticancer experiment was performed with the entire NCI 60 cell lines derived from nine tumor subpanel cancer cell lines. The results for each compound were illustrated as a mean graph showing the percentage growth of treated cells compared to untreated control cells (see Supplementary Materials).
The NCI anticancer screening process has been thoroughly detailed. The Drug Evaluation Branch of the National Cancer Institute in Bethesda, […], USA, established the procedure and conducted the anticancer assay on 60 human tumor cell lines from nine neoplastic cancers.

Where two headings read alike, the source gives them in different places.

Regarding `O=C(CSc1nnc(-c2c[nH]c3ccccc23)n1-c1ccccc1)c1ccccc1` [Compound 6f, 2-((5-(1H-indol-3-yl)-4-phenyl-4H-1,2,4-triazol-3-yl)thio)-1-phenylethanone], the inhibition at 10 µM in the test with A549/ATCC turned out to be 14.5%; in the test with BT-549, 37.8%; in the test on EKVX it was 31.6%; in the test with HCT-15, 20.6%; in the test with HS 578 T, 75.9%; in the test with HT29, 52.1%. The inhibition at 10 µM amounted to 44.9% in the test with IGROV1; 70.8% in the test on LOX IMVI; 26.4% in the test on M14; 73% in the test on MDA-MB-231/ATCC; 12.8% with MDA-MB-435; 22.8% in the test on MDA-MB-468. Besides, the inhibition at 10 µM turned out to be 9.43% in the test with MOLT-4; 38.2% in the test with NCI-H460; 85.2% in the test on NCI/ADR-RES; 85.3% in the test with OVCAR-8; 68.3% in the test on SF-268; 28% with SF-295. Moreover, the inhibition at 10 µM in the test with SF-539 was 92.4%; in the test with SK-MEL-5, 9.3%; with SK-OV-3 it was 14.4%; in the test with SR, 18.4%; with UACC-62, 26.6%; in the test with A498 it was -6.16%.
`C=CCn1c(SC/C(=N\O)c2ccc(Br)cc2)nnc1-c1c[nH]c2ccccc12` [Compound 7d, (Z)-2-((4-allyl-5-(1H-indol-3-yl)-4H-1,2,4-triazol-3-yl)thio)-1-(4-bromophenyl) Ethanone Oxime]: the inhibition at 10 µM with A549/ATCC is 9.17%; in the test with BT-549, 20.4%; in the test with EKVX, 25.8%; in the test with HCT-15 it was 26.9%; in the test on HS 578 T, 22.1%; with HT29 it was 3.35%. In addition, the inhibition at 10 µM with IGROV1 is 30.8%; in the test on M14 it was 19.2%; in the test with MDA-MB-231/ATCC it was 23.6%; with MDA-MB-435, 11.5%; with MDA-MB-468 it was 42.2%; in the test on MOLT-4, 43.7%. Besides, the inhibition at 10 µM in the test with NCI-H460 came to 19.7%; with NCI/ADR-RES, 6.71%; in the test on OVCAR-8, 18.3%; in the test with RXF 393 it was 19.3%; in the test on SF-268, 4.98%; in the test with SF-295 it was 32.5%. Besides, the inhibition at 10 µM in the test with SF-539 was 14%; in the test with SK-MEL-5, 40.9%; in the test on SK-OV-3 it was 3.28%; in the test with SR, 28.5%; in the test on UACC-62, 36.3%; with NCI 60 cell lines (60 cell, eleven cell lines, read-out: growth inhibition percentage, range) it was 34 to 47%.
In the case of `C=CCn1c(SC/C(=N\O)c2ccc(Cl)cc2)nnc1-c1c[nH]c2ccccc12` [Compound 7e, (Z)-2-((4-allyl-5-(1H-indol-3-yl)-4H-1,2,4-triazol-3-yl)thio)-1-(4-chlorophenyl) Ethanone Oxime], the inhibition at 10 µM stood at 6.38% with A549/ATCC; 14.4% in the test on BT-549; 27.1% with EKVX; 21.7% in the test with HCT-15; 12.7% in the test on HS 578 T; 5.77% in the test on HT29. The inhibition at 10 µM with IGROV1 worked out at 29.7%; with M14, 16%; in the test with MDA-MB-231/ATCC it was 23.1%; in the test on MDA-MB-435, 10.7%; in the test on MDA-MB-468, 43.1%; with MOLT-4, 40%. Further, the inhibition at 10 µM in the test on NCI-H460 is 24.7%; with NCI/ADR-RES, 3.86%; with OVCAR-8, 16.8%; with RXF 393, 5.62%; in the test on SF-268, -1.1%; with SF-295 it was 25%. Besides, the inhibition at 10 µM in the test with SF-539 was 5.14%; in the test with SK-MEL-5 it was 27.4%; with SK-OV-3, 3.52%; in the test with SR, 12.1%; in the test with UACC-62, 35.8%; with NCI 60 cell lines (HL-60(TB), K-562, MOLT-4, HCT-116, UACC-62, UO-31, T-47D, MDA-MB-468, read-out: growth inhibition percentage, range), 35 to 46.5%.

For orientation: inhibition means the drop in the measured response relative to a control, in per cent.
